Measurements taken from US20260130395A1, “Water Dispersible Botanical Compositions” (Aquila Black Limited, priority 2021, published 2026).

Experiment: Stability of cannabinoid compounds and Vitamin E components in Beverage 1 (AB White) by LCMSMS
Format: physicochemical
Settings: for Stability of Plant-Derived Cannabinoid Compounds in AB White, 8° C.: AB White stored at 8° C.; for Stability of Plant-Derived Cannabinoid Compounds in AB White, 21-25° C.: AB White stored at 21-25° C.

## CCCCCc1cc(O)c2c(c1)OC(C)(C)c1ccc(C)cc1-2 [CBN, cannabinol]
0 days
  Stability of Plant-Derived Cannabinoid Compounds in AB White, 8° C.: 2.79 µg/mL
  Stability of Plant-Derived Cannabinoid Compounds in AB White, 21-25° C.: 2.79 µg/mL
1 days
  Stability of Plant-Derived Cannabinoid Compounds in AB White, 8° C.: 2.77 µg/mL
  Stability of Plant-Derived Cannabinoid Compounds in AB White, 21-25° C.: 2.79 µg/mL
2 days
  Stability of Plant-Derived Cannabinoid Compounds in AB White, 8° C.: 2.72 µg/mL
  Stability of Plant-Derived Cannabinoid Compounds in AB White, 21-25° C.: 2.81 µg/mL
3 days
  Stability of Plant-Derived Cannabinoid Compounds in AB White, 8° C.: 2.73 µg/mL
  Stability of Plant-Derived Cannabinoid Compounds in AB White, 21-25° C.: 2.73 µg/mL
5 days
  Stability of Plant-Derived Cannabinoid Compounds in AB White, 8° C.: 2.76 µg/mL
  Stability of Plant-Derived Cannabinoid Compounds in AB White, 21-25° C.: 2.80 µg/mL
8 days
  Stability of Plant-Derived Cannabinoid Compounds in AB White, 8° C.: 2.75 µg/mL
  Stability of Plant-Derived Cannabinoid Compounds in AB White, 21-25° C.: 2.71 µg/mL
9 days
  Stability of Plant-Derived Cannabinoid Compounds in AB White, 8° C.: 2.76 µg/mL
  Stability of Plant-Derived Cannabinoid Compounds in AB White, 21-25° C.: 2.78 µg/mL
10 days
  Stability of Plant-Derived Cannabinoid Compounds in AB White, 8° C.: 2.79 µg/mL
  Stability of Plant-Derived Cannabinoid Compounds in AB White, 21-25° C.: 2.77 µg/mL
11 days
  Stability of Plant-Derived Cannabinoid Compounds in AB White, 8° C.: 2.71 µg/mL
  Stability of Plant-Derived Cannabinoid Compounds in AB White, 21-25° C.: 2.80 µg/mL
12 days
  Stability of Plant-Derived Cannabinoid Compounds in AB White, 8° C.: 2.80 µg/mL
  Stability of Plant-Derived Cannabinoid Compounds in AB White, 21-25° C.: 2.75 µg/mL
15 days
  Stability of Plant-Derived Cannabinoid Compounds in AB White, 8° C.: 2.79 µg/mL
  Stability of Plant-Derived Cannabinoid Compounds in AB White, 21-25° C.: 2.81 µg/mL
16 days
  Stability of Plant-Derived Cannabinoid Compounds in AB White, 8° C.: 2.77 µg/mL
  Stability of Plant-Derived Cannabinoid Compounds in AB White, 21-25° C.: 2.75 µg/mL
17 days
  Stability of Plant-Derived Cannabinoid Compounds in AB White, 8° C.: 2.82 µg/mL
  Stability of Plant-Derived Cannabinoid Compounds in AB White, 21-25° C.: 2.70 µg/mL
18 days
  Stability of Plant-Derived Cannabinoid Compounds in AB White, 8° C.: 2.71 µg/mL
  Stability of Plant-Derived Cannabinoid Compounds in AB White, 21-25° C.: 2.78 µg/mL
19 days
  Stability of Plant-Derived Cannabinoid Compounds in AB White, 8° C.: 2.71 µg/mL
  Stability of Plant-Derived Cannabinoid Compounds in AB White, 21-25° C.: 2.73 µg/mL
22 days
  Stability of Plant-Derived Cannabinoid Compounds in AB White, 8° C.: 2.76 µg/mL
  Stability of Plant-Derived Cannabinoid Compounds in AB White, 21-25° C.: 2.69 µg/mL
23 days
  Stability of Plant-Derived Cannabinoid Compounds in AB White, 8° C.: 2.71 µg/mL
  Stability of Plant-Derived Cannabinoid Compounds in AB White, 21-25° C.: 2.68 µg/mL
24 days
  Stability of Plant-Derived Cannabinoid Compounds in AB White, 8° C.: 2.75 µg/mL
  Stability of Plant-Derived Cannabinoid Compounds in AB White, 21-25° C.: 2.79 µg/mL
25 days
  Stability of Plant-Derived Cannabinoid Compounds in AB White, 8° C.: 2.75 µg/mL
  Stability of Plant-Derived Cannabinoid Compounds in AB White, 21-25° C.: 2.75 µg/mL
26 days
  Stability of Plant-Derived Cannabinoid Compounds in AB White, 8° C.: 2.76 µg/mL
  Stability of Plant-Derived Cannabinoid Compounds in AB White, 21-25° C.: 2.69 µg/mL
29 days
  Stability of Plant-Derived Cannabinoid Compounds in AB White, 8° C.: 2.76 µg/mL
30 days
  Stability of Plant-Derived Cannabinoid Compounds in AB White, 8° C.: 2.78 µg/mL
60 days
  Stability of Plant-Derived Cannabinoid Compounds in AB White, 8° C.: 2.68 µg/mL
90 days
  Stability of Plant-Derived Cannabinoid Compounds in AB White, 8° C.: 2.74 µg/mL
120 days
  Stability of Plant-Derived Cannabinoid Compounds in AB White, 8° C.: 2.72 µg/mL
150 days
  Stability of Plant-Derived Cannabinoid Compounds in AB White, 8° C.: 2.69 µg/mL
180 days
  Stability of Plant-Derived Cannabinoid Compounds in AB White, 8° C.: 2.77 µg/mL
210 days
  Stability of Plant-Derived Cannabinoid Compounds in AB White, 8° C.: 2.75 µg/mL
240 days
  Stability of Plant-Derived Cannabinoid Compounds in AB White, 8° C.: 2.70 µg/mL
270 days
  Stability of Plant-Derived Cannabinoid Compounds in AB White, 8° C.: 2.75 µg/mL
300 days
  Stability of Plant-Derived Cannabinoid Compounds in AB White, 8° C.: 2.71 µg/mL
330 days
  Stability of Plant-Derived Cannabinoid Compounds in AB White, 8° C.: 2.75 µg/mL
360 days
  Stability of Plant-Derived Cannabinoid Compounds in AB White, 8° C.: 2.68 µg/mL
390 days
  Stability of Plant-Derived Cannabinoid Compounds in AB White, 8° C.: 2.67 µg/mL
420 days
  Stability of Plant-Derived Cannabinoid Compounds in AB White, 8° C.: 2.70 µg/mL
450 days
  Stability of Plant-Derived Cannabinoid Compounds in AB White, 8° C.: 2.70 µg/mL
480 days
  Stability of Plant-Derived Cannabinoid Compounds in AB White, 8° C.: 2.66 µg/mL
510 days
  Stability of Plant-Derived Cannabinoid Compounds in AB White, 8° C.: 2.60 µg/mL
540 days
  Stability of Plant-Derived Cannabinoid Compounds in AB White, 8° C.: 2.56 µg/mL
570 days
  Stability of Plant-Derived Cannabinoid Compounds in AB White, 8° C.: 2.56 µg/mL
